The text below walks through data of patent EP4682141A1, “TRICYCLIC COMPOUND” (ONO Pharmaceutical Co., Ltd., priority 2023, dated 2024).

The target in one experiment is T1, EP1 (Homo sapiens, UniProt P34995).
T1 construct: expressed in transfected cells; host or cells: CHO (EP1-CHO)
T1 sequence (P34995 1-402): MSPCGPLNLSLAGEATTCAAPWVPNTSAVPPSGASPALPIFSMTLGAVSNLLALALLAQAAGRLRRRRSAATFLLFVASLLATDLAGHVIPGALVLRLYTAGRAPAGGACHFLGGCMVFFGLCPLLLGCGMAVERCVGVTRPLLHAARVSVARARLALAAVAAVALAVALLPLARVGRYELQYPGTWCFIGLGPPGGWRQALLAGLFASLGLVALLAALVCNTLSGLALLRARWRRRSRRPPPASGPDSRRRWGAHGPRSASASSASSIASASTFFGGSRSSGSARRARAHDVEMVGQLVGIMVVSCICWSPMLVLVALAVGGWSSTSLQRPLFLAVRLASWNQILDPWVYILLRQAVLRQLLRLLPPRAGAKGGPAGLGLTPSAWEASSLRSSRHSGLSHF
In words: agonist activity on human EP1 receptor (intracellular calcium concentration, EP1-CHO cells). In kind it is cell-based. On the procedure: Using CHO cells (EP1-CHO, EP2-CHO, EP3-Chem1, EP4-CHO and IP-CHO) on which various human prostanoid receptors were forcibly expressed, the agonist activity of the test compound on the various prostanoid receptors was examined using the intracellular calcium concentration for EP1 and EP3, and the intracellular cyclic AMP (hereinafter, abbreviated as cAMP) production amount for EP2, EP4 and IP as indices.
The test compound and control substances (PGE2 and iloprost) were dissolved in dimethyl sulfoxide (DMSO) to prepare a 10 mmol/L solution. The prepared 10 mmol/L solution was thawed at the time of use, serially diluted using DMSO, and diluted with a buffer solution 1 for measurement (Hank's balanced salt solution (Thermofischer scientific) containing 1 w/v% human serum albumin (Sigma), 2 µmol/L indomethacin (Sigma), 2.5 mmol/L probenecid, and 10 mmol/L HEPES-NaOH (pH7.4)) or a buffer solution 2 for measurement (D-PBS (Nacalai Tesque) containing 0.1 w/v% human serum albumin, 2 µmol/L diclofenac (Sigma), and 1 mmol/L 3-isobutyl-1-methylxanthine (Sigma)) to perform experiments.
The intracellular calcium concentration was measured using Calcium 6 Assay Kit (Molecular Devices). On the day before the measurement, EP1-CHO and EP3-Chem 1 were obtained by thawing the frozen cells, suspended using Ham's F-12 medium (Thermofischer scientific) containing inactivated (56°C, 30 min) 9.8 vol% FBS (Thermofischer scientific) and penicillin-streptomycin (Nacalai Tesque), seeded into a 96 well UV plate to 1.0×10^5 cells per well, and static cultured at 37°C in the presence of 5%CO2. On the day of the measurement, the medium was removed, followed by addition of 120 µL of the Calcium indication solution dissolved in the buffer solution 1 for measurement and incubation at room temperature under light-shielding for about 1 hour. After 1 hour incubation, the 96 well UV plates were set in a fluorescence spectrophotometer (FDSS-7000, Hamamatsu Photonics) to measure the intracellular calcium concentration. Thirty microliters of the buffer solution 1 for measurement containing various concentrations of agonists were added, and the mixture was reacted. The intracellular calcium concentration was measured by irradiating the cells with 480 nm excitation light and measuring the fluorescence intensity at 540 nm.

For another experiment, the system named is diabetes model rat. In words: inhibitory effect on the amount of albumin excreted in urine in diabetes model rat. In kind it is in vivo, SDT Fatty rats. As to conditions: urine collected for 24 hours, urine albumin/urine creatinine ratio. As to the method:
Male SDT Fatty rats aged 6 weeks (CLEA Japan) were purchased and preliminarily bred for 1 week or more. Experiments were performed at 8 to 16 weeks of age. The animals were fed ad libitum with solid feed CRF-1 (Oriental Yeast) and watered ad libitum.
Animals were housed in metabolic cages 2 days before test substance administration, and urine was collected for 24 hours. On the day before administration of the test substance, urine albumin and urine creatinine were measured, and grouping was performed by a stratification randomization method based on the urine albumin/urine creatinine ratio (ACR) and the average value of body weights for each group.
The compounds (test substances) of Examples 9-5, 10, 11, 12, 25-7 and 32, and water for injection (Otsuka Pharmaceutical) as a vehicle were orally administered once at 5 mL/kg. The administration dose is described in Table 3.
For evaluation of the amount of albumin excreted in urine of each animal, a urine albumin/urine creatinine ratio (ACR) was measured. After administration of the test substance, the animals were housed in metabolic cages, and urine was collected for 24 hours. Each concentration of urine albumin and urine creatinine was measured using an automatic analyzer 7180 (Hitachi High-Tech), and ACR was calculated by dividing the urine albumin concentration by the urine creatinine concentration.

Experiment [1] relates to Alport syndrome model mice. In words: in vivo drug efficacy in Alport syndrome model mice. As to conditions: Control-4 group: irbesartan (50 mg/kg) orally once a day for 17 weeks; 16 weeks after the start of administration. On the set-up: species or system COL4A5 homozygote knockout mice. As to the method: The in vivo drug efficacy of the present compound on Alport syndrome was evaluated using COL4A5 (causative gene of Alport syndrome) knockout mice.
Male wild-type mice and female COL4A5 hetero knockout mice were naturally crossed to obtain offspring. Genotypes of the offspring were confirmed and male COL4A5 homozygote knockout mice were obtained.
The obtained animals were fed ad libitum with CE-2 (CLEA Japan), and watered ad libitum.
The mice were divided into groups using a statistical analysis system EXSUS10.0 so that the body weight and the urine albumin/urine creatinine value at the time of 6 weeks of age were almost uniform in each group.
The test substance and water for injection (Otsuka Pharmaceutical) as a vehicle were orally administered at 10 mL/kg once a day for 17 weeks.
The Control-3 group was orally administered water for injection at 10 mL/kg once a day for 17 weeks. In the Control-4 group, water for injection and an administration solution of irbesartan which is a renin angiotensin system inhibitor were mixed in equal amounts at 5 mL/kg each, and orally administered once a day for 17 weeks.
The administration dose is described in Table 11.
Blood collection was performed by cutting the tail vein of the mice a little with a razor and using a hematocrit capillary. Blood was centrifuged to obtain plasma. Urine was collected for about 16 hours in a metabolic cage for mouse under conditions in which a solid feed and water can be freely taken. The obtained urine sample was centrifuged, and the supernatant was subjected to measurement. Urine albumin (U-ALB) and urine creatinine (U-CRE) concentrations were measured by an automatic analyzer Hitachi 7180 (Hitachi High-Tech), and the creatinine concentration in plasma was measured using LabAssay Creatinine (Fujifilm Wako Shibayagi).

Each structure is given as a SMILES string.

In the case of `Cc1c(C(=O)O)ccc2c1O[C@H]1C[C@@H](O)[C@H](/C=C/C(O)C3(c4ccc(F)cc4)CCC3)[C@H]1CC2` (stereo partly drawn) [Example 9-5, (1R,2R,3aS,10aR)-1-{(1E,3ξ)-3-[1-(4-fluorophenyl)cyclobutyl]-3-hydroxy-1-propen-1-yl}-2-hydroxy-5-methyl-2,3,3a,9,10,10a-hexahydro-1H-benzo[b]cyclopenta[f]oxepine-6-carboxylic acid], the EC50 on EP1 was greater than 10 µM. In addition, the ACR mean was 4691.4 µg/mg in the experiment on diabetes model rat (0.1 mg/kg orally once) and 4466.2 µg/mg in the experiment on diabetes model rat (0.3 mg/kg orally once). With `O=C(O)c1ccc2c(c1Cl)O[C@H]1CC[C@H](/C=C/C(O)C3(c4ccccc4)COC3)[C@H]1CC2` (stereo partly drawn) [Example 26-21, (1R,3aS,10aR)-5-chloro-1-[(1E,3ξ)-3-hydroxy-3-(3-phenyl-3-oxetanyl)-1-propen-1-yl]-2,3,3a,9,10,10a-hexahydro-1H-benzo[b]cyclopenta[f]oxepine-6-carboxylic acid], the EC50 on EP1 is greater than 10 µM. Regarding `O=C(O)c1ccc2c(c1F)O[C@H]1C[C@@H](F)[C@H](/C=C/C(O)C3(c4ccccc4)COC3)[C@H]1CC2` (stereo partly drawn) [Example 28-2, (1R,2R,3aS,10aR)-2,5-difluoro-1-[(1E,3ξ)-3-hydroxy-3-(3-phenyl-3-oxetanyl)-1-propen-1-yl]-2,3,3a,9,10,10a-hexahydro-1H-benzo[b]cyclopenta[f]oxepine-6-carboxylic acid], at EP1, the EC50 is greater than 10 µM. Turning to `O=C(O)c1ccc2c(c1F)O[C@H]1C[C@@H](Cl)[C@H](/C=C/C(O)C3(c4ccccc4F)COC3)[C@H]1CC2` (stereo partly drawn) [Example 32, (1R,2R,3aS,10aR)-2-chloro-5-fluoro-1-{(1E,3ξ)-3-[3-(2-fluorophenyl)-3-oxetanyl]-3-hydroxy-1-propen-1-yl}-2,3,3a,9,10,10a-hexahydro-1H-benzo[b]cyclopenta[f]oxepine-6-carboxylic acid], at EP1, the EC50 is greater than 10 µM. Also, the values for the ACR mean in the experiment with diabetes model rat (0.03 mg/kg orally once) and in the experiment with diabetes model rat (0.1 mg/kg orally once) were 3391 µg/mg and 3086.1 µg/mg, respectively. On to `O=C(O)c1ccc2c(c1F)O[C@H]1C[C@@H](Cl)[C@H](/C=C/C(O)C3(c4ccccc4)CCO3)[C@H]1CC2` (stereo partly drawn) [Example 32-6, (1R,2R,3aS,10aR)-2-chloro-5-fluoro-1-{(1E,3ξ)-3-hydroxy-3-[(2ξ)-2-phenyl-2-oxetanyl]-1-propen-1-yl}-2,3,3a,9,10,10a-hexahydro-1H-benzo[b]cyclopenta[f]oxepine-6-carboxylic acid], for which, at EP1, the EC50 was greater than 10 µM. The same measure, in the same setting: the figure for `CCCC[C@H](C)C(O)/C=C/[C@H]1OC[C@@H]2Oc3c(ccc(C(=O)O)c3C)CC[C@@H]21` (stereo partly drawn) [Example 41, (1R,3aR,10aR)-1-[(1E,3ξ,4S)-3-hydroxy-4-methyl-1-octen-1-yl]-5-methyl-1,3,3a,9,10,10a-hexahydrofuro[3,4-b][1]benzoxepine-6-carboxylic acid] is greater than 10 µM; for `Cc1c(C(=O)O)ccc2c1O[C@H]1CO[C@H](/C=C/C(O)C3(Oc4ccccc4)CCC3)[C@H]1CC2` (stereo partly drawn) [Example 41-2, (1R,3aR,10aR)-1-[(1E,3ξ)-3-hydroxy-3-(1-phenoxycyclobutyl)-1-propen-1-yl]-5-methyl-1,3,3a,9,10,10a-hexahydrofuro[3,4-b][1]benzoxepine-6-carboxylic acid] it is greater than 10 µM. For `CCCCC1=NC2(CCCC2)C(=O)N1Cc1ccc(-c2ccccc2-c2nnn[nH]2)cc1` [Irbesartan, irbesartan, reference compound], in experiment [1], the Plasma creatinine mean is 0.771 mg/dL and the “Urine Albumin/ Urine Creatinine Ratio mean” value is on record as 31414.47 mg/g.

The EC50 is the concentration that produces a half-maximal response.
